Results reported in ChEMBL document CHEMBL1156728, “Allele-specific inhibition of divergent protein tyrosine phosphatases with a single small molecule” (Bioorg Med Chem, 2008).

What was measured:
[1] = Inhibition of CCPGCC hexapeptide insertion containing TCPTP-187 mutant
[2] = Inhibition of CCPGCC hexapeptide insertion containing PTP1B-186 mutant
[3] = Inhibition of CCPGCC hexapeptide insertion containing PTPH1-816 mutant at 1 uM; conditions: TDE = time-dependent effect
[4] = Inhibition of CCPGCC hexapeptide insertion containing PTPH1-816 mutant
[5] = Inhibition of CCPGCC hexapeptide insertion containing HePTP-211 mutant
[6] = Inhibition of CCPGCC hexapeptide insertion containing FAP1-2364 mutant
[7] = Inhibition of CCPGCC hexapeptide insertion containing PTPalpha-406 mutant
[8] = Inhibition of CCPGCC hexapeptide insertion containing PTPalpha-406 mutant at 1 uM; conditions: TDE = time-dependent effect
[9] = Inhibition of CCPGCC hexapeptide insertion containing PTP-PEST-204 mutant

For `O=C(O)c1ccccc1-c1c2ccc(=O)c([As]3SCCS3)c-2oc2c([As]3SCCS3)c(O)ccc12`, the Ki [1] was 17 nM, the Ki [2] was 46 nM and the Activity [3] was “tde”. The Ki [4] was 38 nM, the Ki [5] was 89 nM and the Ki [6] was 370 nM. For the same compound, the Ki [7] was 39 nM, the Activity [8] was “tde” and the Ki [9] was 53 nM.
